Data as given in BindingDB's records for patent US20250282794 (Curadev Pharma, 2025).
pIC50: −log10 of the molar value.

Each compound was assayed against Mitogen-activated protein kinase kinase kinase kinase 1 (Homo sapiens, UniProt Q92918) (assay: HPK-1 biochemical enzyme assay).
Sequence of Mitogen-activated protein kinase kinase kinase kinase 1 (Q92918 whole entry): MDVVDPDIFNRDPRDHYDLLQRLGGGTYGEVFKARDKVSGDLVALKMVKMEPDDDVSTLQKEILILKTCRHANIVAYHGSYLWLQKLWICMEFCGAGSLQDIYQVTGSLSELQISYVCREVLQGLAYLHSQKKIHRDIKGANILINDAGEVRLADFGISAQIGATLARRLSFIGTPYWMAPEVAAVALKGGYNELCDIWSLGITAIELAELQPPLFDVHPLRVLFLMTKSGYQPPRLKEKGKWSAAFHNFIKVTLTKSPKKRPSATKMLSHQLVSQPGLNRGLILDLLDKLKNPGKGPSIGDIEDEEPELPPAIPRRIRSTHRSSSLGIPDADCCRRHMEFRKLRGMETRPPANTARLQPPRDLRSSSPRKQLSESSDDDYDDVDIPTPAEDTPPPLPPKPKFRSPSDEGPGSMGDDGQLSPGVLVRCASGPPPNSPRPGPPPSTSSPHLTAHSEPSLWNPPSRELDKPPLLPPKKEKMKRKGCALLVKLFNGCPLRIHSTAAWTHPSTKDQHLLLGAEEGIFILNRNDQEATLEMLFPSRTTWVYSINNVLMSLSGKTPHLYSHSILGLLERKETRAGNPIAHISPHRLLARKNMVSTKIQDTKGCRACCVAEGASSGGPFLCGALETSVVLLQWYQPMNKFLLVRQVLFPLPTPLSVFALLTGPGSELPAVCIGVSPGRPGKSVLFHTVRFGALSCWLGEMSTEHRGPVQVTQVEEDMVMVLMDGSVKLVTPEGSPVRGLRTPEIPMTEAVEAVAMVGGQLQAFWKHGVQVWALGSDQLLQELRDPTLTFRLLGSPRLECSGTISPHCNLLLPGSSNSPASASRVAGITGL
Procedure: Compound inhibitory potency was measured in an HPK-1 kinase inhibition assay. Briefly, recombinant full length HPK-1 enzyme (6.8 nM) was incubated with 10 μM ATP and 12.5 μM swine myelin basic protein (MBP) for 30 mins. at 25° C. in the presence of various concentrations of test compound or vehicle in 40 mM Tris.Cl pH7.4 buffer containing 20 mM MgCl2, 50 μM DTT and 0.1 mg/mL BSA. Reactions were quenched and reaction mixtures were then analyzed by an ADP-Glo kit which measures the formed ADP. The percent inhibition was calculated from the substrate conversion considering no enzyme control reactions for 100% inhibition and vehicle only reactions for 0% inhibition. The compounds were dissolved in DMSO and evaluated at 10 concentrations to determine an IC50 value.
With Cc1c(Nc2cc[nH]c(=O)c2C(=O)Nc2ccc(N3CCN(C(=O)C4CCC4)CC3)cc2)cnc2c1NCCO2 [US20250282794, Example 314] the pIC50 was > 8.00. Cc1c(Nc2cc[nH]c(=O)c2C(=O)Nc2ccc(-c3ccccc3)cc2)cnc2c1NCCO2 [US20250282794, Example 331] showed a pIC50 of 7.00 to 8.00. With Cc1c(Nc2cc[nH]c(=O)c2C(=O)Nc2ccc(N3CCN(C)CC3)c(CN)c2)cnc2c1NCCO2 [US20250282794, Example 393] the pIC50 was > 8.00. In the case of Cc1c(Nc2cc[nH]c(=O)c2C(=O)Nc2ccc(N3CCC(O)(CN(C)C)CC3)c(F)c2)cnc2c1NCC(C)O2 (stereo unspecified) [US20250282794, Example 388], the pIC50 was > 8.00. In the case of COCCN1CCN(c2ccc(NC(=O)c3c(Nc4cnc5c(c4C)NCCO5)cc[nH]c3=O)cc2F)CC1 [US20250282794, Example 194], the pIC50 was > 8.00. With Cc1c(Nc2cc[nH]c(=O)c2C(=O)Nc2ccc(N3CCN(c4ccccn4)CC3)cc2)cnc2c1NCCO2 [US20250282794, Example 289] the pIC50 was > 8.00. Cc1c(Nc2cc[nH]c(=O)c2C(=O)Nc2ccc(C3CCN(C(C)C)CC3)cc2)cnc2c1NCCO2 [US20250282794, Example 279] was tested, and the pIC50 was > 8.00. For COCCCN1CCN(c2ccc(NC(=O)c3c(Nc4cnc5c(c4C)NCCO5)cc[nH]c3=O)cc2)CC1 [US20250282794, Example 277], the pIC50 was > 8.00. With Cc1c(Nc2cc[nH]c(=O)c2C(=O)Nc2ccc(N3CCC(O)CC3)cc2)cnc2c1NCCO2 [US20250282794, Example 278] the pIC50 was > 8.00. With COCCN1CCN(c2ccc(NC(=O)c3c(Nc4cnc5c(c4C)NCCO5)cc[nH]c3=O)cc2C)CC1 [US20250282794, Example 275] the pIC50 was > 8.00. In the case of Cc1c(Nc2cc[nH]c(=O)c2C(=O)Nc2ccc(N3CCN(C4CCCC4)CC3)c(N)c2)cnc2c1NCCO2 [US20250282794, Example 311], the pIC50 was > 8.00.
